The record followed here is patent publication US20150087697A1, “COMPOSITIONS AND METHODS FOR THE TREATMENT OF MUSCLE PAIN” (priority 2012, published 2015).

This series can be described thus: in vivo. To be noted: rat, iv, 30 μg/min/kg.

In general, half-life refers to the time in which the quantity being followed falls by half. For `CC/C=C\C/C=C\C/C=C\C/C=C\C/C=C\CCCC(=O)OCCN(CC)CCOC(c1ccccc1)c1ccccc1` [Formula I (compound 1-4)], the half-life is, setting by setting: (brain (striatum microdialysate, unbound drug)) 49.1 ± 7.3 min; (plasma (femoral vein microdialysate, unbound drug)) 67.6 ± 1.4 min.
